What was measured:
[1] = system: DU-145 prostate cancer cells; assay: Cell viability crystal violet assay; type: cell-based, Homo sapiens; settings: rocaglamide at concentrations higher than 6 μM
Protocol: The cell viability of DU-145 prostate cancer cells was evaluated after treatment with 1, 2, and the positive control rocaglamide using the protocol from a Phospho-NF-kappaBp65 (S468 + S536) and Total In-Cell ELISA Kit (ab207482) (Abcam Inc., Waltham, MA, USA), after initial PhosphoNF-κBp65 translocation steps (Section 4.11).

[2] = system: Hepa1c1c7 mouse hepatoma cells; assay: Cell oxidative stress real-time dose–response assay (ROS, DCFH-DA); type: cell-based
Protocol: A reactive oxygen species (ROS) assay was performed following a previously described procedure. The generated intracellular levels of ROS were measured using the fluorescent probe 2′,7′-dichlorodihydrofluorescein diacetate (DCFH-DA). Hepa1c1c7 mouse hepatoma cells were seeded in a 96-well plate, treated with 1, 2, or the positive control rocaglamide, followed by 5 h incubation at 37 °C with 5% CO2. Subsequently, cells were incubated with H2O2 (1.25 mM) and FeSO4 for 30 min at 37 °C. Later, the fluorescent probe DCFH-DA was added to determine intracellular ROS. Fluorescence was measured using a FLUOstar Optima fluorescence plate reader (BMG Labtech Inc., Durham, NC, USA) at an excitation wavelength of 485 nm and emission wavelength of 530 nm. All treatments performed in triplicate were representative of at least two different experiments.

zebrafish (Danio rerio) = assay: Toxicity assay in zebrafish; settings: for morphological changes / developmental abnormalities: tamoxifen 50 μM at 48 h, 1 100 μM at 48 h, 2 100 μM at 24 h
Protocol: Animals were provided by the Department of Neuroscience at The Ohio State University (OSU) (OSU IACUC-approved animal protocol number 2014A00000006-R1-AR1). Zebrafish embryos were housed in aquaculture water at 28 °C with a 14 h/10 h light/dark cycle. After 24 h post fertilization (hpf), groups of random embryos were exposed to different concentrations (0, 50, or 100 μM, n = 25) for 24 and 48 h. Then, images of the zebrafish were taken using an Axiovert 40 CFL Zeiss microscope and ProgRes C10 plus camera. Morphological changes in zebrafish development were determined and recorded.

[3] = system: phosphoNF-κBp65 in DU-145 prostate cancer cells; assay: PhosphoNF-κBp65 assay (In-Cell ELISA); type: cell-based, Homo sapiens
Protocol: PhosphoNF-κBP65 phosphorylation levels were evaluated using the protocol from an Abcam Phospho-NF-kappaBp65 ([…] + […]) + Total In-Cell ELISA Kit (ab207482) (Abcam Inc., Waltham, MA, USA). The effects of 1, the natural product chemopreventive positive control 2, and a rocaglamide positive control in the PhosphoNF-κBp65 assay activity were measured using a FLUOstar Optima plate reader. DU-145 or Hepa1c1c7 cells (5 × 10^4 cells/well) were seeded in a white 96-well plate and treated (0-150 μM) for 5 h. Afterwards, luminescence was measured using a FLUOstar Optima plate reader.

[4] = SRB cell cytotoxicity assay; type: cell-based, Homo sapiens; settings: human, DU-145 prostate cancer cells; DU-145; Supplementary Figure S7; read-out: cytotoxic concentration in vitro (IC50)
Protocol: (§1) The antiproliferative effects of 1, the chemopreventive control 2, and the positive control paclitaxel were measured using a sulforhodamine B (SRB) cytotoxicity assay. Briefly, DU-145 prostate cancer cells (5 × 10^4 cells/well) were seeded in a 96-well plate overnight. Then, the cells were treated at different concentrations ranging from 0 to 150 μM with each test compound for 24, 48, and 72 h (Supplementary Figure S7). After being treated, the cells were incubated with cold trichloroacetic acid (20%, 30 min), washed with tap water, stained with SRB (0.4%, 30 min), and washed subsequently with acetic acid (1%). Finally, the unbound dye was solubilized using 200 μL of Tris-base (10 mM) and the absorbance read at 515 nm using a FLUOstar Optima microplate reader (BMG Labtech Inc., Durham, NC, USA). The percent inhibition was determined by using the formula provided in the prior publication.

[5] = system: DU-145 prostate cancer cells; assay: SRB cell cytotoxicity assay; type: cell-based, Homo sapiens; settings: DU-145 human prostate cancer cells
Protocol: as §1

[6] = system: HT-29 human colon cancer cells; settings: nanomolar range; cited from earlier work

## COc1ccc([C@@]23Oc4cc(OC)cc(OC)c4[C@]2(O)[C@H](O)[C@H](C(=O)N(C)C)[C@H]3c2ccccc2)cc1 [Rocaglamide, reference compound]
[1]
  cell viability (crystal violet): maintained the same level of cell viability

## C/C=C/c1cc(OC)c2c(c1)[C@H](C)[C@@H](c1ccc(O)c(OC)c1)O2 [compound 1, licarin A]
[2]; Hepa1c1c7
  effective concentration for oxidative control: 48 nM
Zebrafish (Danio rerio); 48 h exposure, tamoxifen 50 μM, 1 and 2 100 μM, mean ± SEM
  % survival: 100%
Zebrafish (Danio rerio)
  morphological changes / developmental abnormalities: lack of morphological changes
[3]
  effective concentration for inducing NF-κB phosphorylation: 9.6 nM
[4]
  IC50: 100 µM
[5]
  growth inhibitory activity: did not produce any discernible growth inhibitory activity
[1]
  cell viability (crystal violet): remained alive and proliferated, but in a controlled manner

## O=C(/C=C/c1ccc(O)cc1)c1ccc(O)cc1O [compound 2, Isoliquiritigenin, reference compound]
[2]; 48 nM, assay duration 60 min
  duration of reduction in cellular stress (time until activity degrades): 30 min
Zebrafish (Danio rerio); 24 h exposure, tamoxifen 50 μM, 1 and 2 100 μM, mean ± SEM
  % of hatching: 100%
Zebrafish (Danio rerio)
  morphological changes / developmental abnormalities: curved spines or shortened tails

## C/C=C/c1cc(OC)c2c(c1)[C@@H](C)[C@H](c1cc(OC)c(OC)c(OC)c1)O2 [licarin C]
[6]
  cytotoxicity: potently cytotoxic
